# Data: patent US20240391931A1 (Bristol-Myers Squibb Company, priority 2021, published 2024)
# Where a name gives a salt, the structure may show the parent alone.
# Molecular target: HER2YVMA (Homo sapiens, UniProt P04626, INS775YVMA)
# Assay: HER2 signaling (pHER2) in Hek293-HER2YVMA cells
# Format: cell-based
# Set-up: expressed in transfected cells; host or cells: HEK293 (pool), Ba/F3 (clones), BEAS2B (clones); lentiviral vector pCDH-CMV-MCS-EF1-Neo
# Details: 1.5 hr compound, 1% FBS, read-out: HEKYVMA pHER2 EC50
# Method: Cell culture, plasmid cloning, and lentiviral transduction were carried out according to standard procedures. The Human HER2 cDNA construct in pCMV6-Entry for the HER2 wildtype (WT) expression was obtained from Origene. The HER2 cDNA including the 12-nucleotide insertion corresponding to YVMA insertion (HER2YVMA) was codon optimized, synthesized and cloned by GenScript (Piscataway, NJ) in pcDNA3.1. The lentiviral constructs expressing HER2YVMA and HER2 WT were sub-cloned using PCR at System Biosciences (SBI, Mountainview, CA) into lentiviral vectors pCDH-CMV-MCS-EF1-Neo and lentiviral particles were generated.
# Engineered lines expressing HER2YVMA and HER2 WT were prepared in HEK293 (human embryonic kidney cells), Ba/F3 (Interleukin 3 (IL3)-dependent murine pro B cell line), and BEAS2B (primary immortalized human bronchial epithelial cell line). Ba/F3, BEAS2B, and HEK293 cells were obtained from the American Type Culture Collection (ATCC, Manassas, VA). Parental Ba/F3 cells were grown in suspension in complete RPMI 1640 supplemented with 10% FBS and 1% P/S and 10 ng/ml interleukin 3 (IL3, Sigma-Aldrich). Hek293 and BEAS2B cells were grown as monolayers in DMEM supplemented with 10% FBS and 1% P/S. All cells were maintained and propagated in a humidified 5% CO2 incubator at 37° C.
# To generate Ba/F3, BEAS2B, and Hek-293 cells engineered with lentivirus to express HER2 WT or HER2YVMA, the cells were transduced with lentiviruses at multiplicity of infection (MOI) of 1 or 10; transduced cells were selected and maintained with G418 ([…]) (Geneticin, Life Technologies, Carlsbad, CA). Ba/F3 engineered cells were subjected to gradual withdrawal of interleukin 3 (IL-3, Sigma-Aldrich). After selection, IL3 independent Ba/F3 HER2YVMA, and BEAS2B HER2YVMA cells were cloned by limiting dilution. Hek293 HER2YVMA cells were used as pool. HER2 and phospho HER2 levels were confirmed by flow cytometery and immunoassay (MSD, Meso-Scale Discovery, Rockville, Maryland).
# HER2 signaling was assessed in BT474 and N87 cell lines which endogenously overexpress the HER2 wildtype (WT) protein, in NCI-H1781 cells which endogenously expresses a HER2 mutant protein containing a VC insertion in the kinase domain (HER2VC or G776delinsVC), and in engineered cell lines transduced to express the Her2 mutant protein containing the YVMA insertion (Hek293-HER2YVMA and BEAS2B-HER2YVMA).
# BT474, N87, and NCI-H1781 were plated in 96-well tissue-culture treated plates (Corning Costar, Sigma-Aldrich) in full media and incubated overnight. Hek293-HER2YVMA and BEAS2B-HER2YVMA cells were plated in 96-well poly-D-lysine treated plates (BD Bioscience, San Jose, CA). For treatment with test compounds, the media was replaced with corresponding low serum media (1% FBS) containing test compound at 1.1, 0.37, 0.12, 0.041, 0.014, 0.005, 0.0014, 0.0005 μM or DMSO control (0.1%). Cells were incubated with compound for 1.5 hr at 37° C. After compound treatment, the media was removed and cells were lysed for 30 min on ice in complete MSD lysis buffer (prepared using MSD base lysis buffer (Meso-Scale Discovery) supplemented with cOmplete, EDTA-free Protease inhibitor cocktail (Roche), Phosphatase Inhibitor Cocktails 2 and 3 (Sigma-Aldrich), and 1 mM PMSF (Sigma-Aldrich)). Lysates were stored at −70° C. until further analysis.
# HER2 signaling was evaluated using phospho (Tyr1248)/total ErbB2 whole cell lysate MSD plates (Meso-Scale Discovery, Gaithersburg, MD). The phospho HER2 signal was normalized to total HER2 for each sample; results are reported as % DMSO control. The normalized data was fitted using a sigmoidal curve analysis program (Graph Pad Prism version 6) with variable Hill slope to determine EC50 values.
# The HER2 signaling results are provided in Table 4, under columns titled “BT474-pHER2 EC50”, “N87-pHER2 EC50”, and “NCI-H1781-pHER2 EC50”. […]
# HER2YVMA, sequence (P04626 with tags, fused parts or gaps INS775YVMA): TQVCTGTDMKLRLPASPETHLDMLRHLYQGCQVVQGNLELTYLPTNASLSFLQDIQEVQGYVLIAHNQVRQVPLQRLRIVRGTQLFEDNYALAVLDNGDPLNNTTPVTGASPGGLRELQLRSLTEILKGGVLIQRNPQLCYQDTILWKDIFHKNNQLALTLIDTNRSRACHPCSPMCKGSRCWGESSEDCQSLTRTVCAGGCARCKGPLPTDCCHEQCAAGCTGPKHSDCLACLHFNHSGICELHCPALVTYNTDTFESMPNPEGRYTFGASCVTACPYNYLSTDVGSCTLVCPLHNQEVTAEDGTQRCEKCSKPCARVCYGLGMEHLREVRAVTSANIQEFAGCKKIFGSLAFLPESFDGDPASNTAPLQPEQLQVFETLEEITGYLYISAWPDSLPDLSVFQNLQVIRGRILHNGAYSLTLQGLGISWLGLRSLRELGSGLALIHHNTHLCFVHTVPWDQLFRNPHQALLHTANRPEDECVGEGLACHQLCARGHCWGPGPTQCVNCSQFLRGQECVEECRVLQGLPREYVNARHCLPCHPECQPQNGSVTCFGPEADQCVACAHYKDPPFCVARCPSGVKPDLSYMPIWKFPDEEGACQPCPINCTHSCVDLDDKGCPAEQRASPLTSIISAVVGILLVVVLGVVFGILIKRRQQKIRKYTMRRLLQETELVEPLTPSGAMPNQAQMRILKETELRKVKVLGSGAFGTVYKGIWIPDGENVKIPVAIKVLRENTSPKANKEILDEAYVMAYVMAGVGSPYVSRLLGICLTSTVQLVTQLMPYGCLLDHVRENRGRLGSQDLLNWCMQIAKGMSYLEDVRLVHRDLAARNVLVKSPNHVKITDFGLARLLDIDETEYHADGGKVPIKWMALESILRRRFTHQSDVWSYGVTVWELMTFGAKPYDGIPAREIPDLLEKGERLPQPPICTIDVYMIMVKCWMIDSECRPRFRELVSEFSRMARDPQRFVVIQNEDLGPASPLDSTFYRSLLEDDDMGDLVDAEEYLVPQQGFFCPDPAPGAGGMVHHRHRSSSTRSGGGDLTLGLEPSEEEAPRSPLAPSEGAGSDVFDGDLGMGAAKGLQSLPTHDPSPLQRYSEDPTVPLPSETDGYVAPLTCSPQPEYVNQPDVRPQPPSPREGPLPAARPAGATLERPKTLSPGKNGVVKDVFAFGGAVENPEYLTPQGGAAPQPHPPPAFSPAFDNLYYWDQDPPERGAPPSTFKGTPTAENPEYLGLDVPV
row,SMILES,EC50 [nM]
1,"Cc1ccc(Oc2ccc(Nc3ncnc4sc5c(c34)C[C@@H](C)N(C(=O)/C=C/CN(C)C)[C@H]5C)cc2C)cn1 (racemic) [Compound 149, (E)-1-(6,8-cis-dimethyl-4-((3-methyl-4-((6-methylpyridin-3-yl)oxy)phenyl)amino)-5,8-dihydropyrido[4′,3′:4,5]thieno[2,3-d]pyrimidin-7(6H)-yl)-4-(dimethylamino)but-2-en-1-one]",< 100
2,"Cc1ccc(Oc2ccc(Nc3ncnc4sc5c(c34)C[C@@H](C)N(C(=O)/C=C/CN(C)C)[C@@H]5C)cc2C)cn1 (racemic) [Compound 165, (E)-1-(6,8-trans-dimethyl-4-((3-methyl-4-((6-methylpyridin-3-yl)oxy)phenyl)amino)-5,8-dihydropyrido[4′,3′:4,5]thieno[2,3-d]pyrimidin-7(6H)-yl)-4-(dimethylamino)but-2-en-1-one]",100 to 350
3,"C=CC(=O)N1[C@H](C)Cc2c(sc3ncnc(Nc4ccc(Oc5ccc(C)nc5)c(C)c4)c23)[C@H]1C (racemic) [Compound 166, 1-(6,8-trans-dimethyl-4-((3-methyl-4-((6-methylpyridin-3-yl)oxy)phenyl)amino)-5,8-dihydropyrido[4′,3′:4,5]thieno[2,3-d]pyrimidin-7(6H)-yl)prop-2-en-1-one]",< 100
4,"C=CC(=O)N1Cc2sc3ncnc(Nc4ccc(Oc5ccc(C)nc5)c(C)c4)c3c2C(C)C1 (single isomer, unassigned) [Compound 145]",< 100
5,"C=CC(=O)N1Cc2sc3ncnc(Nc4ccc(Oc5ccc(C)nc5)c(C)c4)c3c2C(C)C1 (single isomer, unassigned) [Compound 146]",< 100
6,"Cc1ccc(Oc2ccc(Nc3ncnc4sc5c(c34)C(C)N(C(=O)C=CCN(C)C)C5)cc2C)cn1 (single isomer, unassigned) [Compound 147]",< 100
7,"Cc1ccc(Oc2ccc(Nc3ncnc4sc5c(c34)C(C)N(C(=O)C=CCN(C)C)C5)cc2C)cn1 (single isomer, unassigned) [Compound 148]",350 to 1000
8,"COc1ccc(Oc2ccc(Nc3ncnc4sc5c(c34)C(C)CN(C(=O)C=CCN(C)C)C5)cc2C)cn1 (single isomer, unassigned) [Compound 159]",< 100
9,"COc1ccc(Oc2ccc(Nc3ncnc4sc5c(c34)C(C)CN(C(=O)C=CCN(C)C)C5)cc2C)cn1 (single isomer, unassigned) [Compound 160]",< 100
10,"Cc1ccc(Oc2ccc(Nc3ncnc4sc5c(c34)CC(C)N(C(=O)C=CCN(C)C)C5C)cc2C)cn1 (single isomer, unassigned) [Compound 161]",< 100
11,"Cc1ccc(Oc2ccc(Nc3ncnc4sc5c(c34)CC(C)N(C(=O)C=CCN(C)C)C5C)cc2C)cn1 (single isomer, unassigned) [Compound 162]",100 to 350
12,"Cc1ccc(Oc2ccc(Nc3ncnc4sc5c(c34)CN(C(=O)C=CCN(C)C)C5C)cc2C)cn1 (single isomer, unassigned) [Compound 169]",< 100
13,"Cc1ccc(Oc2ccc(Nc3ncnc4sc5c(c34)CN(C(=O)C=CCN(C)C)C5C)cc2C)cn1 (single isomer, unassigned) [Compound 170]",350 to 1000
14,"Cc1ccc(Oc2ccc(Nc3ncnc4sc5c(c34)C(C)CN(C(=O)C=CCN3CCOCC3)C5)cc2C)cn1 (single isomer, unassigned) [Compound 176]",< 100
15,"Cc1ccc(Oc2ccc(Nc3ncnc4sc5c(c34)C(C)CN(C(=O)C=CCN3CCOCC3)C5)cc2C)cn1 (single isomer, unassigned) [Compound 177]",< 100
16,"Cc1ccc(Oc2ccc(Nc3ncnc4sc5c(c34)C(C)CN(C(=O)C=CCN(C)C(C)(C)C)C5)cc2C)cn1 (single isomer, unassigned) [Compound 178]",< 100
17,"Cc1ccc(Oc2ccc(Nc3ncnc4sc5c(c34)C(C)CN(C(=O)C=CCN(C)C(C)(C)C)C5)cc2C)cn1 (single isomer, unassigned) [Compound 179]",< 100
18,"C=CC(=O)N1CCc2c(sc3ncnc(Nc4ccc(Oc5cccnc5)c(Cl)c4)c23)C1 [Compound 6, 1-(4-((3-chloro-4-(pyridin-3-yloxy)phenyl)amino)-5,8-dihydropyrido[4′,3′:4,5]thieno[2,3-d]pyrimidin-7(6H)-yl)prop-2-en-1-one]",< 100
19,"COc1cc(Nc2ncnc3sc4c(c23)CCN(C(=O)/C=C/CN(C)C)C4)ccc1Oc1ccccc1 [Compound 7, (E)-4-(dimethylamino)-1-(4-((3-methoxy-4-phenoxyphenyl)amino)-5,8-dihydropyrido[4′,3′:4,5]thieno[2,3-d]pyrimidin-7(6H)-yl)but-2-en-1-one]",< 100
20,"Cc1ccc(Oc2ccc(Nc3ncnc4sc5c(c34)CCN(C(=O)/C=C/CN(C)C)C5)cc2C)cn1 [Compound 8, (E)-4-(Dimethylamino)-1-(4-((3-methyl-4-((6-methylpyridin-3-yl)oxy)phenyl)amino)-5,6-dihydropyrido[4′,3′:4,5]thieno[2,3-d]pyrimidin-7(8H)-yl)but-2-en-1-one]",< 100
21,"C=CC(=O)N1CCc2c(sc3ncnc(Nc4ccc(Oc5cccnc5)c(C)c4)c23)C1 [Compound 11, 1-(4-((3-methyl-4-(pyridin-3-yloxy)phenyl)amino)-5,8-dihydropyrido[4′,3′:4,5]thieno[2,3-d]pyrimidin-7(6H)-yl)prop-2-en-1-one]",< 100
22,Cc1cc(Nc2ncnc3sc4c(c23)CCN(C(=O)/C=C/CN2CCOCC2)C4)ccc1Oc1ccc2ncnn2c1 [Compound 12],< 100
23,Cc1ccc(Oc2ccc(Nc3ncnc4sc5c(c34)CCN(C(=O)/C=C/CN3CC4CCC(C3)O4)C5)cc2C)cn1 [Compound 13],< 100
24,Cc1ccc(Oc2ccc(Nc3ncnc4sc5c(c34)CCN(C(=O)/C=C/CN3CC4CCC3C4)C5)cc2C)cn1 (stereo not shown) [Compound 14],< 100
25,Cc1ccc(Oc2ccc(Nc3ncnc4sc5c(c34)CCN(C(=O)/C=C/CN3CC4CC(C3)O4)C5)cc2C)cn1 [Compound 15],< 100
26,"Cc1ccc(Oc2ccc(Nc3ncnc4sc5c(c34)CCN(C(=O)/C=C/CN3CC4CCC(C4)C3)C5)cc2C)cn1 [Compound 16, (E)-4-(3-azabicyclo[3.2.1]octan-3-yl)-1-(4-((3-methyl-4-((6-methylpyridin-3-yl)oxy)phenyl)amino)-5,8-dihydropyrido[4′,3′:4,5]thieno[2,3-d]pyrimidin-7(6H)-yl)but-2-en-1-one benzenesulfonate salt]",< 100
27,"Cc1ccc(Oc2ccc(Nc3ncnc4sc5c(c34)CCN(C(=O)/C=C/CN3CCOCC3)C5)cc2C)cn1 [Compound 17, (E)-1-(4-((3-Methyl-4-((6-methylpyridin-3-yl)oxy)phenyl)amino)-5,6-dihydropyrido[4′,3′:4,5]thieno[2,3-d]pyrimidin-7(8H)-yl)-4-morpholinobut-2-en-1-one]",< 100
28,O=C(/C=C/CN1CCOCC1)N1CCc2c(sc3ncnc(Nc4ccc(Oc5ccc6ncnn6c5)c(Cl)c4)c23)C1 [Compound 18],< 100
